Laboratory results published in patent publication US20120183660A1, “ISOMANNIDE DERIVATIVES AND THEIR USE AS TASTANTS” (Senomyx, Inc., priority 2009, published 2012).

Tested on: un-induced I-17 cells
Experiment: FLIPR assay on un-induced I-17 cells (no mifepristone induction of receptor expression)
Assay type: cell-based
Conditions: compounds at 10 μM—or three times the maximum stimulation used in the dose-response analysis
Experimental: In order to determine the dependency of hT1R1/hT1R3 for the cell response to different stimuli, selected compounds were subjected to a similar analysis on I-17 cells that had not been induced for receptor expression with mifepristone (designated as un-induced I-17 cells). […] Compounds were presented to un-induced umami cells at […]—or three times the maximum stimulation used in the dose-response analysis.

N[C@@H](CCC(=O)O)C(=O)[O-].[Na+] [monosodium glutamate]
functional response in the FLIPR assay on un-induced umami cells: do not show any functional response
